# Results as given in PMC4686662 (Nature Communications, 2015).
# Read-outs that look alike come from different tables or passages of the source.
# How the values were obtained:
# human Top2β = tested on: human Top2β; design: method as in PMID 26149691; conditions: cited from earlier work
# S. aureus = test: MIC, broth microdilution, S. aureus strains; assay type: cell-based; conditions: Staphylococcus aureus
# Description: (§1) Antibacterial minimum inhibitory concentrations (MICs) were determined from two independent experiments using broth microdilution methods according to Clinical and Laboratory Standards Institute guidelines. […] Bacterial strains used were from GSK's culture collection.
# (§2) The quinolone resistance-determining region (QRDR) or full-length of gyrA/B and parC/E were amplified by PCR from the resistant mutants and DNA sequenced using the following primer pairs (all 5′–3′ sequence): for S. aureus gyrA: […] and […]; gyrB […] and […]; parC […] and […], and parE […] and […], respectively. For S. pneumoniae gyrA: […] and […]; gyrB: […] and […]; parC: […] and […], and parE: […] and […], respectively. […] Mutations in etoposide-resistant transformants were confirmed by PCR and DNA analysis.
# Human Top2α [1] = target: T1, Human Top2α (Homo sapiens, UniProt P11388); test: Human Top2α relaxation inhibition assay; assay type: biochemical
# T1 sequence (P11388 whole entry): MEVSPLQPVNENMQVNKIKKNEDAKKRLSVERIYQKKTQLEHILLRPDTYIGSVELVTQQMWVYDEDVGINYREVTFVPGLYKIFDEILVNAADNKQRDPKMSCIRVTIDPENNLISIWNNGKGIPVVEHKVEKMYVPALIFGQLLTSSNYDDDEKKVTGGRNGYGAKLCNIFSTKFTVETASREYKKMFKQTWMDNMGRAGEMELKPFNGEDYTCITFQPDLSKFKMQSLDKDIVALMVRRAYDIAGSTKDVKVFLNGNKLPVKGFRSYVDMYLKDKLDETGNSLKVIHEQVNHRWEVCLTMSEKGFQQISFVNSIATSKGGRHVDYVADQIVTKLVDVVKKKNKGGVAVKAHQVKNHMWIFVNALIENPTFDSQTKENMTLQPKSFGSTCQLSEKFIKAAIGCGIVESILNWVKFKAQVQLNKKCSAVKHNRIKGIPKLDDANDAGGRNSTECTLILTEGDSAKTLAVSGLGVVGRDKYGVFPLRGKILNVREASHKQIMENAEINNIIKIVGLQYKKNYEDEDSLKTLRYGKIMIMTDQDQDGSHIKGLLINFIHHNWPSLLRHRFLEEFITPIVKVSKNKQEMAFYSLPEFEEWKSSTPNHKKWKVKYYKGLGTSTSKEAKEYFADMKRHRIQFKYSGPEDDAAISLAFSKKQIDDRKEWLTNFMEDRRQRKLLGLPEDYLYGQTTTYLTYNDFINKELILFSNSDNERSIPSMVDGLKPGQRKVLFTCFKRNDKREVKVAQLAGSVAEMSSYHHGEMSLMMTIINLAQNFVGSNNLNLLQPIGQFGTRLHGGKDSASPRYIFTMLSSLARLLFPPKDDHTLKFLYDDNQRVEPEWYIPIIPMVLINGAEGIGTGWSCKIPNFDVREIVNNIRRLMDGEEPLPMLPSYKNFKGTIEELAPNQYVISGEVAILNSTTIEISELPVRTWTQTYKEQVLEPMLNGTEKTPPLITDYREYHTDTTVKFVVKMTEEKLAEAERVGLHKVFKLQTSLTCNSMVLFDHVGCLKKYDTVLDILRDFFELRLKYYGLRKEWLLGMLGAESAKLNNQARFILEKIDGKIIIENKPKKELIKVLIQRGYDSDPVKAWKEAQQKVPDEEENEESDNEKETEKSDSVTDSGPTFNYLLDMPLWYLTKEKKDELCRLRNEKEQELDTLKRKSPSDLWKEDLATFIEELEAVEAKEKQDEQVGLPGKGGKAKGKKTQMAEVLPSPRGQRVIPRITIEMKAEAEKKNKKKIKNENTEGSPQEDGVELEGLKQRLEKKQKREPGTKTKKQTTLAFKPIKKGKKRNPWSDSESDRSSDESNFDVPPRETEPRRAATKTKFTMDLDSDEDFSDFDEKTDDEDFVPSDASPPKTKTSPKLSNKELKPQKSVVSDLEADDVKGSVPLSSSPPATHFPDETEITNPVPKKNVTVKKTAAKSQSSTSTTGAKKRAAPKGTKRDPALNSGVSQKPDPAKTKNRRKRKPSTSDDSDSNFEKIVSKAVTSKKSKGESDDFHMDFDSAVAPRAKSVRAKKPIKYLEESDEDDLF
# Description: In vitro topoisomerase activity assays were performed as described with minor modifications[9]. […] Human Top2α relaxation assays were performed as reported using 2 nM of enzyme[50]. […] Reactions were analysed by electrophoresis in 1% w/v agarose gels followed by ethidium bromide staining. IC50 values, defined as the amount of compound that causes half-maximal inhibition, were determined by quantifying the DNA products using densitometry (VisionWorks, UVP) and fitting the data by nonlinear regression with GraFit software (Erythacus).
# S. aureus DNA gyrase [2] = target: T2, S. aureus DNA gyrase (Staphylococcus aureus, UniProt P0A0K8+P20831); test: biochemical; assay type: biochemical; conditions: for Type of DNA breaks stabilized with S. aureus DNA gyrase: each compound 100 μM, supercoiled pBR322, full-length S. aureus gyrase
# T2 construct: Full-length S. aureus GyrA and GyrB were expressed in E. coli and purified as described; made in house; host or cells: E. coli
# Description: (§3) BlueJuice gel loading buffer (Invitrogen) was added. […] See Supplementary Fig. 15 for representative gels.
# E. coli DNA gyrase [3] = target: T3, E. coli DNA gyrase (Escherichia coli, UniProt P0AES4+P0AES6); test: E. coli DNA gyrase supercoiling inhibition assay; assay type: biochemical; design: E. coli full-length DNA gyrase subunits A and B (both N-terminally 6-His-tagged) produced in-house; 6-His (N); made in house
# T3 sequence (P0AES4 whole entry, one chain of several): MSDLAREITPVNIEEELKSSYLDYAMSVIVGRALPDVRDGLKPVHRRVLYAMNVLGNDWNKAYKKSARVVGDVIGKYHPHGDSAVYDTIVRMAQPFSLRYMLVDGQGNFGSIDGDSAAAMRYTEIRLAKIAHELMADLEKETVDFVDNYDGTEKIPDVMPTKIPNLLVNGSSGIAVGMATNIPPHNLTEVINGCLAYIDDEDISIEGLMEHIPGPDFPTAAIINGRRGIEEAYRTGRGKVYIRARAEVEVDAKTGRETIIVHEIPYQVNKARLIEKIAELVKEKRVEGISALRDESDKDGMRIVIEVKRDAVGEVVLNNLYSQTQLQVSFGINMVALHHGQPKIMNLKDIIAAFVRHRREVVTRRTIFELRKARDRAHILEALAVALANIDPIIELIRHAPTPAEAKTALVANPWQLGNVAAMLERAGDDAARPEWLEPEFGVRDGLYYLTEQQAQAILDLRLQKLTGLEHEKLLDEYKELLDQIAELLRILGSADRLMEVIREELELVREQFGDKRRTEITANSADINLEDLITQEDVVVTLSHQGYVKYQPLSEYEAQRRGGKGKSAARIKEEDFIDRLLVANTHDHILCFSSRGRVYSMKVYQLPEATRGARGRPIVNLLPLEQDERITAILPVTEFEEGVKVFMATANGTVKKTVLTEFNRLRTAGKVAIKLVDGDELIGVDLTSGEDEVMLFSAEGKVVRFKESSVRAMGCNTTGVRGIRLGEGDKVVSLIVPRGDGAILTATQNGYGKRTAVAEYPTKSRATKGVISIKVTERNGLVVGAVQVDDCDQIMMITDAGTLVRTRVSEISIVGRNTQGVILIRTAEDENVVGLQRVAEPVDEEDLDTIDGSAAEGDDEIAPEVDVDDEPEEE
# Description: (§4) In vitro topoisomerase activity assays were performed as described with minor modifications. […] For E. coli DNA gyrase supercoiling assays, 3.4 nM of wild-type E. coli DNA gyrase (Inspiralis) was incubated with 500 ng relaxed pBR322 plasmid DNA in a 30-μl reaction containing the same buffer mixture but without the potassium glutamate. For S. aureus topo IV decatenation assays, 4 nM of S. aureus topo IV was incubated with 200 ng kinetoplast DNA in buffer as described by the manufacturer (Inspiralis). In E. coli topo IV decatenation assay, 0.125 nM of E. coli topo IV was incubated with kDNA as described in the protocol (Inspiralis). Human Top2α relaxation assays were performed as reported using 2 nM of enzyme. […] Reactions were analysed by electrophoresis in 1% w/v agarose gels followed by ethidium bromide staining. IC50 values, defined as the amount of compound that causes half-maximal inhibition, were determined by quantifying the DNA products using densitometry (VisionWorks, UVP) and fitting the data by nonlinear regression with GraFit software (Erythacus). Compound IC50 values reported are the averages of two to three determinations.
# E. coli DNA gyrase [4] = target: T3, E. coli DNA gyrase; conditions: concentrations showing similar intensities of DSB
# Description: DNA was released by further incubation with 0.2% (w/v) SDS and 0.1 mg ml^−1 proteinase K at 37 °C for 60 min. BlueJuice gel loading buffer (Invitrogen) was added. Samples were analysed by electrophoresis in 1% w/v agarose gel containing 0.5 μg ml^−1 ethidium bromide followed by photography under ultraviolet illumination. DNA bands were quantified by densitometry using UVP gel imaging software. Values were fitted by nonlinear regression with GraFit software (Erythacus). […] Each sample contained compound dissolved in 2% (v/v) dimethylsulfoxide.
# Acinetobacter baumannii = test: MIC, broth microdilution, A. baumannii strains; assay type: cell-based; design: unit not given here; conditions: A. baumannii ACM1015 adeABC adeIJK (footnote c)
# Description: as §1
# Klebsiella pneumoniae = test: MIC, broth microdilution, K. pneumoniae strains; assay type: cell-based; design: unit not given here; conditions: Klebsiella pneumoniae 1161486 tolC
# Description: as §1
# Haemophilus influenzae = test: MIC, broth microdilution, H. influenzae strains; assay type: cell-based; design: unit not given here
# Description: as §1
# E. coli Topo IV [5] = target: T4, E. coli Topo IV (Escherichia coli, UniProt P0AFI2+P20083); conditions: read-out: IC50, E. coli Topo IV decatanation; supplementary ref 3; cited from earlier work
# T4 construct: purchased Inspiralis
# T4 sequence (P0AFI2 whole entry): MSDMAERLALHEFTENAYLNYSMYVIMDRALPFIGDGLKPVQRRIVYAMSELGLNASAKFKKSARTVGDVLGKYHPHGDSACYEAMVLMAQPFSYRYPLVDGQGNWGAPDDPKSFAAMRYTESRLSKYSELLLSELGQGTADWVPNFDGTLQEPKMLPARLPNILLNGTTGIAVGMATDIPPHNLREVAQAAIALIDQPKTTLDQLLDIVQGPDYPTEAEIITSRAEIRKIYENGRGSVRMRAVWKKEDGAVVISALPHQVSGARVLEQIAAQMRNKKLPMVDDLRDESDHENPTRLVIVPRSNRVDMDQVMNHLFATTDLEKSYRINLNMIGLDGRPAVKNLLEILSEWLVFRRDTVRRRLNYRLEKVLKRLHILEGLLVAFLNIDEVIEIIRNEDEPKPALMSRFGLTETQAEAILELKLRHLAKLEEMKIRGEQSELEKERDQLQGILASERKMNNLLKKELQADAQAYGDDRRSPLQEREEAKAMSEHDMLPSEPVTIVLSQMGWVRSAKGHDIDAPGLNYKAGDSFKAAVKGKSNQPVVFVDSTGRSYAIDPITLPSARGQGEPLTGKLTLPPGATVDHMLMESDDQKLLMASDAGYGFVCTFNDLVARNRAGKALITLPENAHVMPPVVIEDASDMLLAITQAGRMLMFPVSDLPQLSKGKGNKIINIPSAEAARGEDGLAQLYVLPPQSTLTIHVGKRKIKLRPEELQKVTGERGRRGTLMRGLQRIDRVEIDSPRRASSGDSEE
# T4 sequence (P20083 whole entry): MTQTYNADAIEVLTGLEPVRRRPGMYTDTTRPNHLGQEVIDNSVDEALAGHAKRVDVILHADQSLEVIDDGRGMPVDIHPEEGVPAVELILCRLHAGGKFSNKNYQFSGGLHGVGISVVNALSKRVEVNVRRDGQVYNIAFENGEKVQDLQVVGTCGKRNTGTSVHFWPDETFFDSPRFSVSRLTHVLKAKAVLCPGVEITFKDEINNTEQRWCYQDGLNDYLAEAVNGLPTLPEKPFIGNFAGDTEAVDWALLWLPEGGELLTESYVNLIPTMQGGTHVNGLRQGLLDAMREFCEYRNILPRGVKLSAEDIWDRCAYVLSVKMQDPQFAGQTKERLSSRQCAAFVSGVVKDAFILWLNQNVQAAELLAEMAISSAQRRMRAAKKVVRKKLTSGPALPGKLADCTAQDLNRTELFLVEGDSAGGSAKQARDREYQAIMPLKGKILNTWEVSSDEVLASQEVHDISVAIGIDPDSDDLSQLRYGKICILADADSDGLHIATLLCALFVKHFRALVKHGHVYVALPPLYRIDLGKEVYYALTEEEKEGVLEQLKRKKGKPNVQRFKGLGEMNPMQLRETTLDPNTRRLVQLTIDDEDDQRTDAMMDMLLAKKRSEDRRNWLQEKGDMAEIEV
# Human Top2α [6] = target: T1, Human Top2α; test: DNA cleavage assay with human Top2α
# Description: as §3
# E. coli = test: MIC, broth microdilution, E. coli strains; assay type: cell-based, Escherichia coli
# Description: as §1
# S. aureus Topo IV [7] = target: T5, S. aureus Topo IV (Staphylococcus aureus, UniProt P0C1S7+P0C1U9); design: method as in earlier work; conditions: read-out: IC50, S. aureus Topo IV decatanation; supplementary ref 4; cited from earlier work
# T5 construct: purchased Inspiralis
# S. pneumoniae = test: MIC, broth microdilution, S. pneumoniae strains; assay type: cell-based; conditions: Streptococcus pneumoniae
# Description: as §1, §2
# S. aureus DNA gyrase [8] = target: T2, S. aureus DNA gyrase; test: S. aureus DNA gyrase supercoiling inhibition assay; assay type: biochemical
# Description: as §4
# S. aureus Topo IV [9] = target: T5, S. aureus Topo IV; test: S. aureus topo IV decatenation inhibition assay; assay type: biochemical
# Description: as §4
# E. coli Topo IV [10] = target: T4, E. coli Topo IV; test: E. coli topo IV decatenation inhibition assay; assay type: biochemical
# Description: as §4
# [11] = S. aureus RN4220 (parent), read-out: MIC
# [12] = S. aureus RN4220 GyrB ΔT403-K406, read-out: MIC
# [13] = Escherichia coli, E. coli 7623, read-out: MIC
# [14] = Escherichia coli, E. coli 7623 ΔtolC
# [15] = S. pneumoniae 1629, read-out: MIC
# [16] = S. pneumoniae 1629 GyrB ΔL407–S410, read-out: MIC
SMILES,MIC (S. aureus; [11]),MIC (S. aureus; S. aureus RN4220 GyrB D437A),MIC (S. aureus; S. aureus RN4220 GyrB D437N),MIC (S. aureus; S. aureus RN4220 GyrB D437V),MIC (S. aureus; S. aureus RN4220 GyrB P456L),MIC (S. aureus; [12]),further results
C[C@@H]1CN2c3c(cc4c(N5C(=O)OC[C@@H]5C)noc4c3F)CC3(C(=O)NC(=O)NC3=O)[C@H]2[C@H](C)O1 [AZD9014],–,–,–,–,–,–,Activity against human Top2β (human Top2β): low activity
"COc1cc([C@@H]2c3cc4c(cc3[C@@H](O[C@@H]3O[C@@H]5CO[C@@H](c6cccs6)O[C@H]5[C@H](O)[C@H]3O)[C@H]3COC(=O)[C@H]23)OCO4)cc(OC)c1O [Teniposide, teniposide]",16 µg/mL,32 µg/mL,32 µg/mL,64 µg/mL,32 µg/mL,32 µg/mL,–
"Cc1c2ccncc2c(C)c2c1[nH]c1ccccc12 [Ellipticine, ellipticine]",1 µg/mL,1 µg/mL,1 µg/mL,1 µg/mL,1 µg/mL,1 µg/mL,–
"O=C1c2c(O)ccc(O)c2C(=O)c2c(NCCNCCO)ccc(NCCNCCO)c21 [Mitoxantrone, mitoxantrone]",32 µg/mL,8 µg/mL,32 µg/mL,8 µg/mL,4 µg/mL,6 µg/mL,–
"COc1cc(NS(C)(=O)=O)ccc1Nc1c2ccccc2nc2ccccc12 [Amsacrine, amsacrine]",> 128 µg/mL,32 µg/mL,> 128 µg/mL,64 µg/mL,32 µg/mL,128 µg/mL,–
"C[C@@H]1CN2c3ccc([N+](=O)[O-])cc3CC3(C(=O)NC(=O)NC3=O)[C@H]2[C@H](C)O1 [QPT-1, quinoline pyrimidine trione-1]",0.5 µg/mL,2 µg/mL,4 µg/mL,–,–,–,IC50 (Human Top2α [1]): > 500 µM; EC50 (S. aureus DNA gyrase [2]): 8.8 µM; Type of DNA breaks stabilized with S. aureus DNA gyrase (S. aureus DNA gyrase [2]): DSB; IC50 (E. coli DNA gyrase [3]): 0.65 µM; DNA cleavage activity relative to the (+) enantiomer (more active) (E. coli DNA gyrase [4]): ~ 30 fold; MIC (Acinetobacter baumannii): 0.125; MIC (Klebsiella pneumoniae): 0.125; MIC (Haemophilus influenzae; Haemophilus influenzae H128): ≤ 0.125; MIC (Haemophilus influenzae; Haemophilus influenzae H128 acrB): ≤ 0.125; IC50 (E. coli Topo IV [5]): 30 µM; Activity against human Top2α (Human Top2α [6]): does not have detectable activity; EC50 (Human Top2α [6]): > 800 µM; MIC (E. coli; Escherichia coli 7623 tolC): 0.063 µg/mL; MIC (E. coli; [13]): 8 µg/mL; MIC (E. coli; [14]): 0.063 µg/mL
"COc1cccc2c1C(=O)c1c(O)c3c(c(O)c1C2=O)C[C@@](O)(C(=O)CO)C[C@@H]3O[C@H]1C[C@H](N)[C@H](O)[C@H](C)O1 [Doxorubicin, doxorubicin]",8 µg/mL,8 µg/mL,8 µg/mL,8 µg/mL,4 µg/mL,3 µg/mL,–
"COc1cccc2c1C(=O)c1c(O)c3c(c(O)c1C2=O)C[C@@](O)(C(C)=O)C[C@@H]3O[C@H]1C[C@H](N)[C@H](O)[C@H](C)O1 [Daunorubicin, daunorubicin]",8 µg/mL,8 µg/mL,8 µg/mL,8 µg/mL,4 µg/mL,1.5 µg/mL,–
COc1ccc2ncc(C#N)c(CCN3CCC(NCc4cc5c(cn4)OCS5)CC3)c2c1 [GSK299423],0.016 µg/mL,0.125 µg/mL,0.125 µg/mL,0.125 µg/mL,0.125 µg/mL,0.016 µg/mL,–
"COc1c(N2C[C@@H]3CCCN[C@@H]3C2)c(F)cc2c(=O)c(C(=O)O)cn(C3CC3)c12 [Moxifloxacin, moxifloxacin]",0.063 µg/mL,0.063 µg/mL,0.063 µg/mL,–,–,–,IC50 (S. aureus Topo IV [7]): 3.8 µM; Type of DNA breaks stabilized with S. aureus DNA gyrase (S. aureus DNA gyrase [2]): DSB; MIC (S. pneumoniae; [15]): 0.031 µg/mL; MIC (S. pneumoniae; S. pneumoniae 1629 GyrB R447C): 0.094 µg/mL; MIC (S. pneumoniae; [16]): 0.047 µg/mL; MIC (E. coli; [13]): ≤ 0.016 µg/mL; MIC (E. coli; [14]): ≤ 0.016 µg/mL
"COc1cc([C@@H]2c3cc4c(cc3[C@@H](O[C@@H]3O[C@@H]5CO[C@@H](C)O[C@H]5[C@H](O)[C@H]3O)[C@H]3COC(=O)[C@H]23)OCO4)cc(OC)c1O [Etoposide, etoposide]",64 µg/mL,256 µg/mL,128 µg/mL,256 µg/mL,256 µg/mL,256 µg/mL,"IC50 (S. aureus DNA gyrase [8]): 48 µM; Plateau of fitted IC50 curve, % of maximal inhibition (S. aureus DNA gyrase [8]; S. aureus DNA gyrase supercoiling): ~75%; IC50 (S. aureus Topo IV [9]): 246 µM; Plateau of fitted IC50 curve, % of maximal inhibition (S. aureus Topo IV [9]): ~50%; EC50 (S. aureus DNA gyrase [2]): 107 µM; Type of DNA breaks stabilized with S. aureus DNA gyrase (S. aureus DNA gyrase [2]): both SSB and DSB; IC50 (E. coli DNA gyrase [3]): 134 µM; Plateau of fitted IC50 curve, % of maximal inhibition (E. coli DNA gyrase [3]; E. coli DNA gyrase supercoiling): approx. 60%; Plateau of fitted IC50 curve, % of maximal inhibition (E. coli Topo IV [10]; E. coli Topo IV decatenation): ~75%; IC50 (E. coli Topo IV [10]; read-out: IC50, E. coli Topo IV decatanation): 107 µM; MIC (S. pneumoniae; [15]): 2 µg/mL; MIC (S. pneumoniae; S. pneumoniae 1629 GyrB R447C): 16 µg/mL; MIC (S. pneumoniae; [16]): 16 µg/mL; MIC (E. coli; [13]): > 256 µg/mL; MIC (E. coli; [14]): 0.75 µg/mL"
